Entries after “also recorded” stand apart in the source; their conditions may differ.

The subject of series [1] is SARS-CoV-2-GFP. In kind it is cell-based.
In series [2] the test system is EBV RVP. In kind it is cell-based, Ebola virus.
Series [3] deals with type I IFN response (IFN-β). Description: Type I IFN response (IFN-β induction, qRT-PCR) in ZIKV-challenged CHME3 cells. In kind it is cell-based, human. The conditions noted are these: ZIKV MR766 MOI 1, 0.1 μM and 1 μM, 48 hours. From the text:
ZIKV infection activates the type I IFN response via IFN-stimulated genes that are activated by the host after recognition of viral components. If ZIKV is inhibited at a pre-fusion step, viral nucleic acids and proteins will not be exposed to the host cytosol; thus the type I IFN response will not be activated. To test whether DGP treatment prevents activation of the type I IFN response, CHME3 cells we challenged using ZIKV MR766 at an MOI of 1 in the presence of different DGP concentrations. At 48 hours post-challenge, the type I IFN response was assessed using qRT-PCR to measure IFN-β induction (FIG. 5).
ZIKV RNA levels were measured using real-time PCR. HT1080 and VERO cells were challenged by ZIKV MR766 at an MOI of 1 in the presence of DGP. At 48 hours post-challenge, cells were lysed and total RNA was extracted using trizol. Total RNA was used to determine the levels of ZIKV RNA by real-time PCR using specific primers against ZIKA. qRT-PCR was carried out using SYBR green in a 20-μl final volume using a MASTERCYCLER proS machine. The primers used to detect ZIKV were: SEQ ID NO. 1: 5′-TT […]-3′-Forward (Genome Position 941-964) and SEQ ID NO. 2: 5′-[…]-3′-Reverse (Genome position 1123-1103) (AY632535.2). For the detection of SeV, the following primers were used: SEQ ID NO. 3: 5′-[…]-3′-Forward (Genome position 210-233) and SEQ ID NO. […]

For series [4], the system named is HT1080, CHME3, VERO cells. The series can be described thus: MTT cell viability assay. Particulars: human or monkey cells (HT1080, CHME3, VERO); 48 hours. In kind it is cell-based, human and monkey. As for the experimental part: Cell viability was determined by measuring the reduction of the tetrazolium dye MTT [3-(4,5-dimethylthiazol-2-yl)-2,5-diphenyltetrazolium bromide] to its insoluble form formazan. We treated 4×10^3 cells/well in a 96-well plate with serial dilutions of the indicated drugs. Human and monkey cells were incubated with DGP, diphyllin, or 6-deoxy-D-glucose for 48 hours at 37° C. After the incubation period, 10 μl MTT solution (5 mg/mL) was added to each well for an additional 4 hours at 37° C. Finally, the media was removed and dimethyl sulfoxide was added (200 μl/well) according to the manufacturer's instructions. The optical density was measured at 570 nm using a microplate reader. Experiments were performed in triplicates and standard deviations are shown. Mock-treated cells represent 100% viability.

The test system of series [5] is DENV1-RVP. In kind it is cell-based, dengue virus. Particulars: VERO cells; DGP 1 μM; NH4Cl 20 mM.

`COc1cc2c(OC3OC(C)C(O)C(O)C3O)c3c(c(-c4ccc5c(c4)OCO5)c2cc1OC)C(=O)OC3` (centres unmarked) [DGP, 6-deoxyglucose-diphyllin]: in series [1], the “concentration sufficient to potently block the entry of SARS-CoV-2-GFP” value worked out at 0.25 µM. Besides, the “EBV RVP infection” value in series [2] is recorded as “almost undetectable”. Moreover, the “activation of the type I IFN response (IFN-β induction)” value in series [3] is recorded as “substantially decreased and/or prevented”. Also, in series [4], the “toxicity at concentrations required to inhibit ZIKV infection (MTT)” value is on record as “non-toxic; also recorded: not toxic”. Moreover, in series [5], the “DENV1 RVP infection” value is recorded as “almost undetectable”.

(Values after patent US20220323471A1 (priority 2019, published 2022).)
